From patent US4992469A, “Method of obtaining an antiplatelet effect” (Eisai Co., Ltd., priority 1984, dated 1991) come the findings set out here.

Like-named read-outs stand apart in the source and are kept apart here.

Assay [1] has as its system human platelets. The assay can be described thus: Repression of human platelet agglutination in vitro (PRP; PAF, collagen or ADP as inducer). The assay is classed as cell-based. To be noted: for inhibition at 20 µM: test compound 20 μM; for inhibition at 50 µM: test compound 50 μM; for inhibition at 100 µM: test compound 100 μM; for inhibition at 200 µM: test compound 200 μM. On the procedure:
Effects of repressing human platelet agglutination of the compounds of the present invention were examined in vitro. Platelet agglutination test was carried out in the following manner with the use of PAF (platelet activating factor; 1-alkyl-2-acetyl-sn-glycero-3-phosphocholine), collagen and ADP as inducers.
Blood was collected from the venae brachiales of a healthy adult in an amount of nine parts by volume to one part by volume of a 3.8% sodium citrate solution. The blood was centrifuged at 100 ×g for eight min and PRP separated as the supernatant was collected.
To 0.2 ml of the PRP as prepared above, 25 μl portions of test solutions in various concentrations were added and each mixture was incubated at 37° C. for three min. 25 μl of the abovementioned inducer solution was added thereto to induce agglutination. PAF, collagen and ADP were added as inducers to the final concentrations of 100 ng/ml, 1 μg/ml and 5 μM, respectively. Platelet agglutination was determined with an aggregometer (a product of Niko Bioscience Co., Ltd.) by the method of Mustard et al. (cf. Mustard, J.F., Hegaldt, B., Rosewell, H.C., MacMillan, R.C., J. Lab. Clin. Med., 64, 548-559 (1964)). The repressing effect of each test compound was evaluated as the repression ratio with the use of PRP containing vehicle as control.
(3) The following compounds were tested. Compounds A to D are as defined in Experimental Example 1. [drawing 18]
Each figure in Table 2 represents the repression ratio (%) of the corresponding compound.

Assay [2] concerns Phospholipase A2. In words: Phospholipase A2 inhibition (myristic acid liberated from myristyllecithin, HPLC). Type of assay: biochemical. The method, then: Prior to the determination of the activity of phospholipase A by determining myristic acid liberated from a substrate (myristyllecithin) by said enzyme by high-performance liquid chromatography, the following test compounds were added in amounts as shown in Table 1 to examine the effects thereof.
CoQ10 was employed for the purpose of comparison. [drawing 17]
Each value in Table 1 represents the evaluation of the corresponding compound assuming the value of a physiological saline solution as 100 and indicates the phospholipase A2 inhibition activity thereof.

[3] abbreviates: inducer ADP 5 μM, read-out: repression ratio of platelet agglutination, ADP.
[4] abbreviates: inducer PAF 100 ng/ml, read-out: repression ratio of platelet agglutination, PAF.
Setting [5] is: inducer collagen 1 μg/ml, read-out: repression ratio of platelet agglutination, Collagen.

On to `COc1c(O)c(C)c(C/C=C(\C)CC/C=C(\C)CC/C=C(\C)CC/C=C(\C)C(=O)O)c(OC)c1OC` [Compound B], for which, in assay [1] (setting [3]), the inhibition at 20 µM turned out to be 12.9%, the inhibition at 50 µM stood at 24.8%, the inhibition at 100 µM was determined as 21.5% and the inhibition at 200 µM came to 24.2%. Besides, in assay [1] (setting [4]), the inhibition at 20 µM stood at 21.6%, the inhibition at 50 µM turned out to be 36.8%, the inhibition at 100 µM came to 38.4% and the inhibition at 200 µM was found to be 51.6%. In addition, in assay [1] (setting [5]), the inhibition at 20 µM stood at 21.4% and the inhibition at 100 µM is 69.6%. Besides, the “Phospholipase A activity (physiological saline = 100)” value in assay [2] (final concentration 4 μM) came out at 55%.

Take `COC1=C(OC)C(=O)C(C/C=C(\C)CC/C=C(\C)CC/C=C(\C)CC/C=C(\C)CC/C=C(\C)C(=O)O)=C(C)C1=O` [Compound I]: in assay [1] (setting [3]), the inhibition at 100 µM was 3.9% and the inhibition at 200 µM is 22%. In addition, in assay [1] (setting [4]), the inhibition at 20 µM was determined as 2.8%, the inhibition at 50 µM came to 3.9%, the inhibition at 100 µM is 10.8% and the inhibition at 200 µM was determined as 53.3%. Moreover, the inhibition at 100 µM in assay [1] (setting [5]) was found to be 24.1%.

For the compound `COc1c(O)c(C)c(C/C=C(\C)CC/C=C(\C)C(=O)O)c(OC)c1OC` [Compound E], in assay [1] (setting [3]), the inhibition at 100 µM worked out at 10.7% and the inhibition at 200 µM was found to be 23%. Moreover, in assay [1] (setting [4]), the inhibition at 20 µM stood at 3.03%, the inhibition at 50 µM came to 28.1%, the inhibition at 100 µM was 32.5% and the inhibition at 200 µM turned out to be 45.4%. For the same compound, in assay [1] (setting [5]), the inhibition at 20 µM worked out at 45.4% and the inhibition at 100 µM stood at 75.8%.

Take `COc1c(O)c(C)c(C/C=C(\C)CC/C=C(\C)CC/C=C(\C)C(=O)O)c(OC)c1OC` [Compound D]: in assay [1] (setting [3]), the inhibition at 50 µM was determined as 9%, the inhibition at 100 µM was 13.5% and the inhibition at 200 µM is 21.3%. In addition, in assay [1] (setting [4]), the inhibition at 20 µM stood at 4.5%, the inhibition at 50 µM was found to be 23.8%, the inhibition at 100 µM is 26% and the inhibition at 200 µM came to 51.5%. Also, in assay [1] (setting [5]), the inhibition at 20 µM was determined as 2.8% and the inhibition at 100 µM is 39.3%. Moreover, the “Phospholipase A activity (physiological saline = 100)” value in assay [2] (final concentration 4 μM) was determined as 24%.

`COC1=C(OC)C(=O)C(C/C=C(\C)CC/C=C(\C)C(=O)O)=C(C)C1=O` [Compound H]: in assay [1] (setting [3]), the inhibition at 100 µM was determined as 8.8% and the inhibition at 200 µM came out at 18.2%. In addition, in assay [1] (setting [4]), the inhibition at 20 µM came out at 8.8%, the inhibition at 50 µM amounted to 28.2%, the inhibition at 100 µM amounted to 37.8% and the inhibition at 200 µM was determined as 47.3%. For the same compound, in assay [1] (setting [5]), the inhibition at 20 µM came out at 38.1% and the inhibition at 100 µM amounted to 84.3%.

As to `COc1c(O)c(C)c(C/C=C(\C)CC/C=C(\C)CC/C=C(\C)CC/C=C(\C)CC/C=C(\C)C(=O)O)c(OC)c1OC` [Compound F], in assay [1] (setting [3]), the inhibition at 100 µM is 6.7% and the inhibition at 200 µM is 26.3%. In addition, in assay [1] (setting [4]), the inhibition at 50 µM was 5.9%, the inhibition at 100 µM was determined as 9.3% and the inhibition at 200 µM was 49%. For the same compound, in assay [1] (setting [5]), the inhibition at 20 µM is 5% and the inhibition at 100 µM was 15.8%.

In the case of `COC1=C(OC)C(=O)C(C/C=C(\C)CC/C=C(\C)CC/C=C(\C)CC/C=C(\C)C(=O)O)=C(C)C1=O` [Compound A], in assay [1] (setting [3]), the inhibition at 20 µM stood at 12.4%, the inhibition at 50 µM stood at 2.1%, the inhibition at 100 µM came out at 22.1% and the inhibition at 200 µM is 23.1%. Also, in assay [1] (setting [4]), the inhibition at 20 µM was 27.8%, the inhibition at 50 µM is 36%, the inhibition at 100 µM amounted to 42.6% and the inhibition at 200 µM is 52.9%. In assay [1] (setting [5]), the inhibition at 20 µM worked out at 62.4% and the inhibition at 100 µM turned out to be 86.6%. The “Phospholipase A activity (physiological saline = 100)” value in assay [2] (final concentration 4 μM) was 66%.

Take `COC1=C(OC)C(=O)C(C/C=C(\C)CC/C=C(\C)CC/C=C(\C)C(=O)O)=C(C)C1=O` [Compound C]: in assay [1] (setting [3]), the inhibition at 200 µM amounted to 18.3%. Also, in assay [1] (setting [4]), the inhibition at 20 µM worked out at 3.5%, the inhibition at 50 µM came to 3.4%, the inhibition at 100 µM worked out at 12.2% and the inhibition at 200 µM amounted to 47.3%. Moreover, in assay [1] (setting [5]), the inhibition at 20 µM stood at 3.2% and the inhibition at 100 µM came to 17.2%. In addition, the “Phospholipase A activity (physiological saline = 100)” value in assay [2] (final concentration 4 μM) is 25%.

With `COC1=C(OC)C(=O)C(C/C=C(\C)CC/C=C(\C)CC/C=C(\C)CC/C=C(\C)CC/C=C(\C)CC/C=C(\C)CC/C=C(\C)CC/C=C(\C)CC/C=C(\C)CCC=C(C)C)=C(C)C1=O` [CoQ10, Ubidecarenone, reference compound], in assay [1] (setting [3]), the inhibition at 100 µM was found to be 8.7% and the inhibition at 200 µM amounted to 11.3%. For the same compound, in assay [1] (setting [4]), the inhibition at 20 µM worked out at 8%, the inhibition at 100 µM came out at 16.2% and the inhibition at 200 µM came to 19%. Also, in assay [1] (setting [5]), the inhibition at 20 µM was determined as 6.5% and the inhibition at 100 µM is 18.7%. In addition, the “Phospholipase A activity (physiological saline = 100)” value in assay [2] (final concentration 43 μM) amounted to 56%.

For the compound `COc1c(O)c(C)c(C/C=C(\C)CC/C=C(\C)CC/C=C(\C)CC/C=C(\C)CC/C=C(\C)CC/C=C(\C)C(=O)O)c(OC)c1OC` [Compound G], in assay [1] (setting [3]), the inhibition at 100 µM is 14% and the inhibition at 200 µM was 23.1%. For the same compound, in assay [1] (setting [4]), the inhibition at 50 µM came to 8.1%, the inhibition at 100 µM is 12.8% and the inhibition at 200 µM worked out at 59.8%. Also, the inhibition at 100 µM in assay [1] (setting [5]) amounted to 30.2%.

With `COC1=C(OC)C(=O)C(C/C=C(\C)CC/C=C(\C)CC/C=C(\C)CC/C=C(\C)CC/C=C(\C)CC/C=C(\C)C(=O)O)=C(C)C1=O` [Compound J], in assay [1] (setting [3]), the inhibition at 50 µM came out at 16.5%, the inhibition at 100 µM came to 27.1% and the inhibition at 200 µM amounted to 30.1%. Further, in assay [1] (setting [4]), the inhibition at 20 µM is 6%, the inhibition at 50 µM came out at 2.7%, the inhibition at 100 µM was determined as 24.9% and the inhibition at 200 µM was determined as 65.3%. For the same compound, in assay [1] (setting [5]), the inhibition at 100 µM is 22%.
